Experimental data published in US20130143873A1 (priority 2010, published 2013).

Legend:
[1] = tested on: C57BL/6J-TgN(SOD1-G93A)1Gur^dl transgenic mice; experiment: Disease onset (time of peak body weight) in transgenic mice model for amyotrophic lateral sclerosis; type: in vivo; details: postnatal day 45 to 145
Experimental: (§1) Transgenic C57BL/6J-TgN(SOD1-G93A)1Gur^dl mice were originally purchased from The Jackson Laboratories (Bar Harbor, Me.) and routinely identified as positive carriers of the transgene at early postnatal age by PCR amplification (Garney et al. Motor neuron degeneration in mice that express a human Cu,Zn superoxide dismutase mutation. Science 1994. 264(5166):1772-5). The animal colony was kept under controlled temperature (22±2° C.), humidity (40-60%) and light (12 h cycles), and treated in accordance with the European Community Council directive on animal welfare (86/609/EEC).
At 40 days postnatal age, mice identified as positive carriers of the SOD1-G93A transgene were randomly assigned to a diazoxide-treatment or control group. The treatment started at postnatal day 45 and lasted until postnatal day 145. […] Each group consists of 30 animals.
The disease onset was determined as the time when the mouse reached its peak body weight.

[2] = tested on: C57BL/6J-TgN(SOD1-G93A)1Gur^dl transgenic mice; experiment: Motor nerve conduction, tibialis anterior CMAP amplitude, in transgenic mice model for amyotrophic lateral sclerosis; type: in vivo; details: postnatal day 45 to 85; for increase in the amplitude of the tibialis anterior CMAP compared with the vehicle control group: 100% = mean CMAP amplitude of wild type control group
Experimental: as §1
At 40 days postnatal age, mice identified as positive carriers of the SOD1-G93A transgene were randomly assigned to a diazoxide-treatment or control group. An additional group composed by wild type C57BL/6J was also used as absolute control for nerve conduction measurements. The treatment started at postnatal day 45 and lasted until postnatal day 85. The drug was administered daily orally by gavage (p.o.), in a dose volume of 200 μl. […] Each group consists of 8 animals.
At postnatal day 85 days, animals were tested for nerve conduction measurament. For motor nerve conduction tests, the sciatic nerve was stimulated percutaneously by means of single pulses of 0.02 ms duration (Grass S88) delivered through a pair of needle electrodes placed at the sciatic notch. The Compound Muscle Action Potential (CMAP, M wave) was recorded from the tibialis anterior (TA) with microneedle electrodes. […] To ensure reproducibility, the recording needles were placed under microscope to secure the same placement on all animals guided by anatomical landmarks. During the tests, the mice body temperature was kept constant by means of a thermostated warming pad.

[3] = Blood glucose (hyperglycemia) after daily oral diazoxide in C57BL/6J mice; type: in vivo; details: female C57BL/6J mice; 1 mg/kg (3 mg/m^2) and 0.05 mg/kg (0.15 mg/m^2) p.o. daily; 30 days; glucose at time 0 and 60 minutes
Experimental: Female C57BL/6J mice, 11 weeks of age, were purchased from Charles River and maintained on a 12:12 hr light:dark cycle, with standard chow and water freely available. The experiments began at 11:00 h. […] From day 4 on, glucose blood levels were measured every 3-4 days during the 30-day treatment period. Measurements were performed immediately before drug administration (time 0) and at 60 minutes. Blood samples were obtained from the saphenous vein and glucose levels were determined using a glucometer and glucose test strips (Accu-Chek® Aviva, Roche Diagnostics, Indianapolis, Ind., USA). For each group, hyperglycemia was considered when glucose concentration was equal or higher than 176 mg/dl.

[4] = tested on: C57BL/6J-TgN(SOD1-G93A)1Gur^dl transgenic mice; experiment: Survival in transgenic mice model for amyotrophic lateral sclerosis; type: in vivo
Experimental: as §1
At 70 days postnatal age, mice identified as positive carriers of the SOD1-G93A transgene were randomly assigned to a diazoxide-treatment or control group. An additional group composed by wild type C57BL/6J was also used as absolute control for spontaneous deaths. The treatment started at postnatal day 70 and lasted until the animal was sacrificed. […] Each group consists of 14 animals.
Around 75 days of postnatal age treated and not treated mice began to display less exploratory activity and less feeding behaviour as well as a loss of body weight. 20-30 days after, motor deficits were clearly observable, with a continuous loss of muscular mass and body weight. Between postnatal day 137 and 172 animals began to not be able to right themselves within 30 seconds from either side being this their last period of survival. Date and cause of death were recorded for each mouse. For humanitarian reasons, animals were closely monitored and sacrificed as moribund prior to actual death using criteria for severe moribund state. To determine duration of survival reliably and humanely, the moribund state, defined as the inability of mice to right themselves 30 seconds after being placed on a side was used. The moribund mice were considered as “dead”, and were euthanized using carbon dioxide. It is known that when animals reach this “moribund” stage they are unable to survive more than 24 additional hours.

[5] = Blood glucose (hyperglycemia) after daily oral diazoxide in SOD1-G93A transgenic mice; type: in vivo; details: 4 mg/kg/day (12 mg/m^2/day) and 0.8 mg/kg/day (2.4 mg/m^2/day) p.o., 100 days, glucose at postnatal days 105, 115, 145
Experimental: as §1
At 40 days postnatal age, mice identified as positive carriers of the SOD1-G93A transgene were randomly assigned to a diazoxide-treatment or control group. The treatment started at postnatal day 45 and lasted until postnatal day 145. […] Each group consists of 3 animals.
Glucose blood levels were measured at postnatal days 105, 115 and 145. Measurements were performed immediately before drug administration (time 0) and at 60 minutes. Blood samples were obtained from the saphenous vein and glucose levels were determined using a glucometer and glucose test strips (Accu-Chek® Aviva, Roche Diagnostics, Indianapolis, Ind., USA). For each group, hyperglycemia was considered when glucose concentration was equal or higher than 176 mg/dl.

mice = details: 100 mg/kg (300 mg/m^2); cited from earlier work
[6] = 0.05 mg/kg/day (0.15 mg/m^2/day) p.o. from postnatal day 70
[7] = 0.1 mg/kg/day (0.3 mg/m^2/day) p.o. from postnatal day 70
[8] = 1 mg/kg/day (3 mg/m^2/day) p.o. from postnatal day 70

For `CC1=NS(=O)(=O)c2cc(Cl)ccc2N1` [Diazoxide], the “Median Age of Disease Onset” value ([1]; 0.8 mg/kg/day (2.4 mg/m^2/day) p.o.) was 121 days, the “Median Age of Disease Onset” value ([1]; 4 mg/kg/day (12 mg/m^2/day) p.o.) was 116 days and the “increase in the amplitude of the tibialis anterior CMAP compared with the vehicle control group” value ([2]; 0.8 mg/kg/day (2.4 mg/m2/day) p.o.) was 17.1%. The “increase in the amplitude of the tibialis anterior CMAP compared with the vehicle control group” value ([2]; 4 mg/kg/day (12 mg/m2/day) p.o.) was 3.4%, the “amplitude of the tibialis anterior CMAP compared to the vehicle control group” value ([2]; 8 mg/kg/day (24 mg/m^2/day) p.o.) was “no differences” and the “hyperglycemia (glucose concentration equal or higher than 176 mg/dl)” value [3] was “none of the two doses tested in this study produced hyperglycemia”. For the same compound, the “Median Survival” value [4, 6] was 153 days, the “Percentage of mice alive at age of 21 weeks” value (“Percentage of mice alive” below) [4, 6] was 78.6% and the “Percentage of mice alive” value ([4]; 0.05 mg/kg/day (0.15 mg/m^2/day) p.o. from postnatal day 70, listed as diazoxide) was 78.6%. The “Median Survival” value [4, 7] was 152 days, the “Percentage of mice alive” value [4, 7] was 71.4% and the “Percentage of mice alive” value ([4]; 0.1 mg/kg/day (0.3 mg/m^2/day) p.o. from postnatal day 70, listed as diazoxide) was 71.4%. The “Median Survival” value [4, 8] was 156 days, the “Percentage of mice alive” value [4, 8] was 85.7% and the “Percentage of mice alive” value ([4]; 1 mg/kg/day (3 mg/m^2/day) p.o. from postnatal day 70, listed as diazoxide) was 85.7%. For the same compound, the “hyperglycemia (glucose concentration equal or higher than 176 mg/dl)” value [5] was “none of the two doses tested in this study produced hyperglycemia” and the “effect on bupivacaine-induced acute CNS toxicity (latency of convulsions)” value (mice) was “reduce the bupivacaine-induced actute CNS toxicity”.
